Legend:
Assay in all cases: Kinase inhibitory activity profiling of RI-962@10 µM (406 kinases, Eurofins)
Assay type in all cases: biochemical
[1] = target: panel of human kinases (kinase named in endpoint) (Homo sapiens, UniProt P00533); settings: 10 µM; read-out: Activity (%), EGFR(h)
In short: (§1)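 Radiometric filter-binding kinase assays: enzyme preincubated 15 min with compound in 8 mM MOPS pH 7.0, 0.2 mM EDTA, 250 μM peptide substrate, 10 mM magnesium acetate, 10 μM [γ-33P]-ATP. Reaction started with Mg/ATP, run 40 min at room temperature, stopped with phosphoric acid; 33P incorporation read by scintillation counting. Other kinases by similar protocols.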

[2] = target: panel of human kinases (kinase named in endpoint) (Homo sapiens, UniProt P42338); settings: 10 µM; read-out: Activity (%), PI3 Kinase (p110b/p85a)(h)
In short: as §1

[3] = target: panel of human kinases (kinase named in endpoint) (Homo sapiens, UniProt P48426); settings: 10 µM; read-out: Activity (%), PIP4K2a(h)
In short: as §1

[4] = target: panel of human kinases (kinase named in endpoint) (Homo sapiens, UniProt P11309); settings: 10 µM; read-out: Activity (%), Pim-1(h)
In short: as §1

[5] = target: panel of human kinases (kinase named in endpoint) (Homo sapiens, UniProt P07948); settings: 10 µM; read-out: Activity (%), Lyn(h)
In short: as §1

[6] = target: panel of human kinases (kinase named in endpoint) (Homo sapiens, UniProt P23458); settings: 10 µM; read-out: Activity (%), JAK1(h)
In short: as §1

[7] = target: panel of human kinases (kinase named in endpoint) (Homo sapiens, UniProt P29317); settings: 10 µM; read-out: Activity (%), EphA2(h)
Sequence of panel of human kinases (kinase named in endpoint) (Homo sapiens, UniProt P29317) (P29317 24-976): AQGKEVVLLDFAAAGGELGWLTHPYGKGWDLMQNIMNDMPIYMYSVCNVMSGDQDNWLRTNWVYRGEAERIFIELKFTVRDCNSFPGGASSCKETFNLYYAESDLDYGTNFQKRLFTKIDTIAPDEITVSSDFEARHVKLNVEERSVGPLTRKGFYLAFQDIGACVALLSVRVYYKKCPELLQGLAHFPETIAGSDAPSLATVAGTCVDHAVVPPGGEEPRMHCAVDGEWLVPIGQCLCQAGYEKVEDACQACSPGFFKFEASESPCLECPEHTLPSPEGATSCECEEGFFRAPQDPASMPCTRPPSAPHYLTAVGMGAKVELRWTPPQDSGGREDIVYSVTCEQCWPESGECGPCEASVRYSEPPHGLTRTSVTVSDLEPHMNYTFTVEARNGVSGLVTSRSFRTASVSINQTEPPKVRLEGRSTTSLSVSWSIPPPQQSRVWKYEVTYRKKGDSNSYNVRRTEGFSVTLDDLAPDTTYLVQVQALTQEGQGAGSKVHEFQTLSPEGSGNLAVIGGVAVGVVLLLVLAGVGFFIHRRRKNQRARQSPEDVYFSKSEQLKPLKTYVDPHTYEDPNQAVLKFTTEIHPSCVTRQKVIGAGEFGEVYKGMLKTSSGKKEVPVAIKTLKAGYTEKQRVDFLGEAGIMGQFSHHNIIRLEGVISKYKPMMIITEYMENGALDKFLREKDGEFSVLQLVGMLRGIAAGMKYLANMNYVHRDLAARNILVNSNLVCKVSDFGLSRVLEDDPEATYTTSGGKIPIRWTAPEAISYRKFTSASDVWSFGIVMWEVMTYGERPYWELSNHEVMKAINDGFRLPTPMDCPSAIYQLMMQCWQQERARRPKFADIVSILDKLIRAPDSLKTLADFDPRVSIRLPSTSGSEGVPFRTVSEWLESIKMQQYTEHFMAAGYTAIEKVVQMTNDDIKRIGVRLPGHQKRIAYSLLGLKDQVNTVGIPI
In short: as §1

[8] = target: panel of human kinases (kinase named in endpoint) (Homo sapiens, UniProt O14920); settings: 10 µM; read-out: Activity (%), IKKβ(h)
In short: as §1

[9] = target: panel of human kinases (kinase named in endpoint) (Homo sapiens, UniProt Q13131); settings: 10 µM; read-out: Activity (%), AMPKα1(h)
Sequence of panel of human kinases (kinase named in endpoint) (Homo sapiens, UniProt Q13131) (Q13131 whole entry): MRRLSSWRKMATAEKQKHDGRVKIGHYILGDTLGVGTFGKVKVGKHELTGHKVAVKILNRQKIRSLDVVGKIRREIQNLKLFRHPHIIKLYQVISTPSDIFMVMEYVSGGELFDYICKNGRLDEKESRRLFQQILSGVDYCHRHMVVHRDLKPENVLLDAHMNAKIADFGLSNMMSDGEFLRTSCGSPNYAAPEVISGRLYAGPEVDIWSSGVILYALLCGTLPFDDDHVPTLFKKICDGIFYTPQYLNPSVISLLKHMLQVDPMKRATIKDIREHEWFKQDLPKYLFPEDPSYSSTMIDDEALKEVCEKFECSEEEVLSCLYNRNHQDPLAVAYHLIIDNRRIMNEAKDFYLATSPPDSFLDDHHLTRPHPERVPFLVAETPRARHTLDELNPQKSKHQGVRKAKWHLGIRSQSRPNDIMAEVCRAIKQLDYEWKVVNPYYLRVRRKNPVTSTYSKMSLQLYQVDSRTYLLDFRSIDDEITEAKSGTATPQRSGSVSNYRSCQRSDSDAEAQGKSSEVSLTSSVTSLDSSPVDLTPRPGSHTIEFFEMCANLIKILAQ
In short: as §1

[10] = target: panel of human kinases (kinase named in endpoint) (Homo sapiens, UniProt Q9UKE5); settings: 10 µM; read-out: Activity (%), TNIK(h)
In short: as §1

[11] = target: panel of human kinases (kinase named in endpoint) (Homo sapiens, UniProt P11362, V561M); settings: 10 µM; read-out: Activity (%), FGFR1(V561M)(h)
Sequence of panel of human kinases (kinase named in endpoint) (Homo sapiens, UniProt P11362, V561M) (P11362 22-822 V561M): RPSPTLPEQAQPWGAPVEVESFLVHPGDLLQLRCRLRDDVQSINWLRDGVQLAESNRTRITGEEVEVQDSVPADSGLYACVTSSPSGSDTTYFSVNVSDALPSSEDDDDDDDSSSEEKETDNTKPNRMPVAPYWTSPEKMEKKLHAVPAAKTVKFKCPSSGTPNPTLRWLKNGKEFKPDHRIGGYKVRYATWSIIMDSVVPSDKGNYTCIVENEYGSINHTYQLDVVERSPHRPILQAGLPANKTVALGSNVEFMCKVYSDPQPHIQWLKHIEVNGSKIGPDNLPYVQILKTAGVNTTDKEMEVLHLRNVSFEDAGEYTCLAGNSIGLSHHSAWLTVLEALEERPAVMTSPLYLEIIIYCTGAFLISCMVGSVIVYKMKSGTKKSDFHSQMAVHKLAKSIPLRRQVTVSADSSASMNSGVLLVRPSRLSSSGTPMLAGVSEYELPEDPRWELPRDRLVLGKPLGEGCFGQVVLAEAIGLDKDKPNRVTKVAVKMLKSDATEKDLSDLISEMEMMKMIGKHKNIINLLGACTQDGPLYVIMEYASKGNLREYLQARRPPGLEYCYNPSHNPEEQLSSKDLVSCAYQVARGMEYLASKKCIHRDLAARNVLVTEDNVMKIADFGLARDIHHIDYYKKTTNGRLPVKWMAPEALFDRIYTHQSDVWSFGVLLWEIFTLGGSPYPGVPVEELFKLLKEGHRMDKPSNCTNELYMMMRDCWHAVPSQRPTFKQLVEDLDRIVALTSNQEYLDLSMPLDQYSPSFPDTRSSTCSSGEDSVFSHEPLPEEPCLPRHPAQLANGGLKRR
In short: as §1

[12] = target: panel of human kinases (kinase named in endpoint) (Homo sapiens, UniProt P08922); settings: 10 µM; read-out: Activity (%), Ros(h)
In short: as §1

[13] = target: panel of human kinases (kinase named in endpoint) (Homo sapiens, UniProt Q96L34); settings: 10 µM; read-out: Activity (%), MARK4(h)
In short: as §1

[14] = target: panel of human kinases (kinase named in endpoint) (Homo sapiens, UniProt Q6PHR2); settings: 10 µM; read-out: Activity (%), ULK3(h)
Sequence of panel of human kinases (kinase named in endpoint) (Homo sapiens, UniProt Q6PHR2) (Q6PHR2 whole entry): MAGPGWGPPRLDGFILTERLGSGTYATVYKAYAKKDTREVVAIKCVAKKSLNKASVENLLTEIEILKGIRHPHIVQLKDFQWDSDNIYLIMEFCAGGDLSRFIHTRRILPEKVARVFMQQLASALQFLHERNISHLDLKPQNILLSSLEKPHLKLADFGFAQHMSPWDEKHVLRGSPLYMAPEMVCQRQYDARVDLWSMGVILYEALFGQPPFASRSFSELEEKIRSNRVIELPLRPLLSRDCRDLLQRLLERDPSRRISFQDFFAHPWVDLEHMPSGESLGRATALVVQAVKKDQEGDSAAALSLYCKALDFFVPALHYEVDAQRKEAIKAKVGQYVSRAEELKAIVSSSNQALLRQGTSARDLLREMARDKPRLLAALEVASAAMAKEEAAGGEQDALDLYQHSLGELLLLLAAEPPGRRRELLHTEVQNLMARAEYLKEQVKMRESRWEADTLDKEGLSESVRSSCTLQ
In short: as §1

[15] = target: panel of human kinases (kinase named in endpoint) (Homo sapiens, UniProt P10721, V654A); settings: 10 µM; read-out: Activity (%), cKit(V654A)(h)
In short: as §1

[16] = target: panel of human kinases (kinase named in endpoint) (Homo sapiens, UniProt P28482); settings: 10 µM; read-out: Activity (%), MAPK2(h)
Sequence of panel of human kinases (kinase named in endpoint) (Homo sapiens, UniProt P28482) (P28482 whole entry): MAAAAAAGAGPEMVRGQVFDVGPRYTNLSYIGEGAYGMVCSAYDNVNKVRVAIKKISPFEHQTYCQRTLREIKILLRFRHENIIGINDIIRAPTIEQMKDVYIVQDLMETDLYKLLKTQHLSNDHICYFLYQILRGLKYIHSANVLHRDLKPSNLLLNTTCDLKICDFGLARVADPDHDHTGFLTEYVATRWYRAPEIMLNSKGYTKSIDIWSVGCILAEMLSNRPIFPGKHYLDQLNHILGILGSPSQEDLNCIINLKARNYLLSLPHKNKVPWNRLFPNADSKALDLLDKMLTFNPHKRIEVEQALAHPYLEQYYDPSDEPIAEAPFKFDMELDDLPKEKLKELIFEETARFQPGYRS
In short: as §1

[17] = target: panel of human kinases (kinase named in endpoint) (Homo sapiens, UniProt Q6DT37); settings: 10 µM; read-out: Activity (%), MRCKγ(h)
In short: as §1

[18] = target: panel of human kinases (kinase named in endpoint) (Homo sapiens, UniProt Q9NY57); settings: 10 µM; read-out: Activity (%), STK32B(h)
Sequence of panel of human kinases (kinase named in endpoint) (Homo sapiens, UniProt Q9NY57) (Q9NY57 whole entry): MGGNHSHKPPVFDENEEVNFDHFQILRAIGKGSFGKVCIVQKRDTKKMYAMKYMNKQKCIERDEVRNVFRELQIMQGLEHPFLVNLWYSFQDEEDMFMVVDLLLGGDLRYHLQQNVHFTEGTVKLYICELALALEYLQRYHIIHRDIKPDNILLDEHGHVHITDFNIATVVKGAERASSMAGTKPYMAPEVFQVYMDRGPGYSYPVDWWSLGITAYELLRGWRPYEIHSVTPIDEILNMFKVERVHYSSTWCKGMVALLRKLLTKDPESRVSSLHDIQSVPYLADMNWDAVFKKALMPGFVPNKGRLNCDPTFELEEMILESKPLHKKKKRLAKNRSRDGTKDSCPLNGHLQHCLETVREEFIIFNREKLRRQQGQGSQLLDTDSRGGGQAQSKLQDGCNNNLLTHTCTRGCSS
In short: as §1

[19] = target: panel of human kinases (kinase named in endpoint) (Homo sapiens, UniProt Q96GD4); settings: 10 µM; read-out: Activity (%), Aurora-B(h)
Sequence of panel of human kinases (kinase named in endpoint) (Homo sapiens, UniProt Q96GD4) (Q96GD4 whole entry): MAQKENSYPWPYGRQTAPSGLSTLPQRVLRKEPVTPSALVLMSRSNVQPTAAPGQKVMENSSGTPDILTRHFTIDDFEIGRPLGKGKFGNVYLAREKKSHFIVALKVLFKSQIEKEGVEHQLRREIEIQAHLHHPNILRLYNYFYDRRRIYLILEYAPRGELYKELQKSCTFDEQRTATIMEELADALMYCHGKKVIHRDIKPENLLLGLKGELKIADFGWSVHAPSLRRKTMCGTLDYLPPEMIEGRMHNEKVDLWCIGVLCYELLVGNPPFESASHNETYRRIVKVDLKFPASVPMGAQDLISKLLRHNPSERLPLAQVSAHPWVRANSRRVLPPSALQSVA
In short: as §1

[20] = target: panel of human kinases (kinase named in endpoint) (Homo sapiens, UniProt P06493); settings: 10 µM; read-out: Activity (%), CDK1/cyclinB(h)
In short: as §1

[21] = target: panel of human kinases (kinase named in endpoint) (Homo sapiens, UniProt P45983); settings: 10 µM; read-out: Activity (%), JNK1α1(h)
Sequence of panel of human kinases (kinase named in endpoint) (Homo sapiens, UniProt P45983) (P45983 whole entry): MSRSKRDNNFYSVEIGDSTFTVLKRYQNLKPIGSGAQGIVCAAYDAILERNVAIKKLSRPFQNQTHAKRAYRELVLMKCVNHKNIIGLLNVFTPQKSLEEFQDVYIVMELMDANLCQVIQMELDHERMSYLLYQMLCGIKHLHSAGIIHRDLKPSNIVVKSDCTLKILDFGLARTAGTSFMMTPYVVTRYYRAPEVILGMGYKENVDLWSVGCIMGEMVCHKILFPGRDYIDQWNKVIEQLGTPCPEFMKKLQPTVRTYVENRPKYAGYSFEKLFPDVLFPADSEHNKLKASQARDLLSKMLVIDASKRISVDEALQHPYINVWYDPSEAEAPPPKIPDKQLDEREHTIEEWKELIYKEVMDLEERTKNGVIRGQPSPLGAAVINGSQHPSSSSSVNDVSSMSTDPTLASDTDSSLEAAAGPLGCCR
In short: as §1

[22] = target: panel of human kinases (kinase named in endpoint) (Homo sapiens, UniProt P49761); settings: 10 µM; read-out: Activity (%), CLK3(h)
In short: as §1

[23] = target: panel of human kinases (kinase named in endpoint) (Homo sapiens, UniProt P07949, V804L); settings: 10 µM; read-out: Activity (%), Ret (V804L)(h)
In short: as §1

[24] = target: panel of human kinases (kinase named in endpoint) (Homo sapiens, UniProt Q14004); settings: read-out: Activity (%), CDK13/cyclinK(h)
In short: as §1

[25] = target: panel of human kinases (kinase named in endpoint) (Homo sapiens, UniProt P25098); settings: 10 µM; read-out: Activity (%), GRK2(h)
Sequence of panel of human kinases (kinase named in endpoint) (Homo sapiens, UniProt P25098) (P25098 whole entry): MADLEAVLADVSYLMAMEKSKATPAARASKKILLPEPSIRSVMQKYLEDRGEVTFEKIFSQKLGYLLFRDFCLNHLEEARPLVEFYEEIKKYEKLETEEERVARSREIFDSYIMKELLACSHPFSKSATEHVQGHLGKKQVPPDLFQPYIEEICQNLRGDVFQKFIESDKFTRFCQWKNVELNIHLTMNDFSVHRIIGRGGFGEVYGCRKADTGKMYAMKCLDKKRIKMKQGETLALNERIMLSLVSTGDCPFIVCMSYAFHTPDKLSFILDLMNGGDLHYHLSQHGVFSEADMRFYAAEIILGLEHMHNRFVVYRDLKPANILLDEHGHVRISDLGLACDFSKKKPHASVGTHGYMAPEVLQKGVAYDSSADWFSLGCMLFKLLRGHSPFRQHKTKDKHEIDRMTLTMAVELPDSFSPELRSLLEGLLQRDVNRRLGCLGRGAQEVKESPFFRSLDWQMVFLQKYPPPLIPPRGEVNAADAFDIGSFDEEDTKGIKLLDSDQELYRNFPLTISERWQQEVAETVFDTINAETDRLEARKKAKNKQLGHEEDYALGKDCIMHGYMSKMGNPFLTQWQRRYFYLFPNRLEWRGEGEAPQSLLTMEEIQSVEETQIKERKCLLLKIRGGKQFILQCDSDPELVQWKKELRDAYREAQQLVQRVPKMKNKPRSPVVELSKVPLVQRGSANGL
In short: as §1

SMILES: CC(C)C(=O)Nc1nc2cc(-c3ccc4c(c3)c(C(=O)NC(C)c3ccccc3)cn4C)ccn2n1 (stereo not shown) [RI-962]
- activity at 10 µM [1]: 94%
- activity at 10 µM [2]: 88%
- activity at 10 µM [3]: 98%
- activity at 10 µM [4]: 101%
- activity at 10 µM [5]: 65%
- activity at 10 µM [6]: 85%
- activity at 10 µM [7]: 96%
- activity at 10 µM [8]: 88%
- activity at 10 µM [9]: 93%
- activity at 10 µM [10]: 65%
- activity at 10 µM [11]: 99%
- activity at 10 µM [12]: 106%
- activity at 10 µM [13]: 102%
- activity at 10 µM [14]: 68%
- activity at 10 µM [15]: 85%
- activity at 10 µM [16]: 90%
- activity at 10 µM [17]: 83%
- activity at 10 µM [18]: 85%
- activity at 10 µM [19]: 119%
- activity at 10 µM [20]: 99%
- activity at 10 µM [21]: 99%
- activity at 10 µM [22]: 94%
- activity at 10 µM [23]: 103%
- activity at 10 µM [24]: 100%
- activity at 10 µM [25]: 86%
